Experimental data reported in paper PMC8282797, “Strictly regulated agonist-dependent activation of AMPA-R is the key characteristic of TAK-653 for robust synaptic responses and cognitive improvement” (Scientific Reports, 2021).

Columns and labels:
[1] = tested on: rats; test: Exposure margin against seizure after acute treatment; assay type: in vivo, rat; conditions: NOR improvement versus absence of seizure signs
Method: Thus, we decided to calculate the exposure safety margins of AMPA-R potentiators based on the cognitive improvement in the NOR test and the absence of signs of seizures. […] Thus, TAK-653 may have a wider exposure margin than LY451646 in rats.
The data were extracted from the studies conducted in accordance with the Good Laboratory Practice Regulation. […] The dose levels in the first study and second study were set at "100, 15 and 5 mg/kg, p.o." and "50, 15 and 5 mg/kg, p.o.", respectively. The dosing suspensions were administered into the stomach via a catheter in the morning at the dose volume of 5 mL/kg. Cage side observations to confirm tonic or […] convulsions were conducted before and at 1, 2, 4, 8 and 24 h after dosing in the first study and before and at 1, 4 and 24 h after dosing in the second study.
The Sprague–Dawley rats treated with orally administered TAK-653 were decapitated at each time point, and trunk blood was collected into 1.5-mL centrifuge tubes. Plasma was separated from the blood samples by centrifugation. The concentrations of TAK-653 in the plasma were determined using liquid chromatography/tandem mass spectrometry (LC/MS/MS).

[2] = Pharmacokinetics in monkeys; assay type: in vivo; conditions: monkey, plasma, po, 0.03 mg/kg
[3] = molecular target: T1, lipoxygenase 5-LO (Homo sapiens, UniProt P09917); test: Lipoxygenase 5-LO enzyme activity; assay type: biochemical
T1 construct: Ricerca, Taipei, Taiwan
T1 sequence (P09917 1-674): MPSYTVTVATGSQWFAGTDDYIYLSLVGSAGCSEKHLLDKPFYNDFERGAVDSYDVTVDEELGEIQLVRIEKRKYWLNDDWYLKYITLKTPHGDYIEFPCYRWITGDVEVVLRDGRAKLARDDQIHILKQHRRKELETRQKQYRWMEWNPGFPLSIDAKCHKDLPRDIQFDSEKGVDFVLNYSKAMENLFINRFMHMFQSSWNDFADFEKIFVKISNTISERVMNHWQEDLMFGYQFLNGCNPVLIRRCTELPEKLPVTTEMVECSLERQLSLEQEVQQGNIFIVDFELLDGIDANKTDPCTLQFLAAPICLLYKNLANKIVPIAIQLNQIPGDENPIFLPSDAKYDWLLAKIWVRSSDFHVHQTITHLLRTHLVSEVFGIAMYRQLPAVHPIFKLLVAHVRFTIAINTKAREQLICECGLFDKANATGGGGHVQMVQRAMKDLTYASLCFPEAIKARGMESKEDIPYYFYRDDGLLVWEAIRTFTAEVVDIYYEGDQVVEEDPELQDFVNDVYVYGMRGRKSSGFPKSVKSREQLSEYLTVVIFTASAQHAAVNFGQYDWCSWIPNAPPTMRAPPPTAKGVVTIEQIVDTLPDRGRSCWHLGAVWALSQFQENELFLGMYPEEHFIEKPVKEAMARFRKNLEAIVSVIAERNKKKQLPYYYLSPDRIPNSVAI

[4] = tested on: rats; test: 5-choice serial reaction time task (5CSRTT); assay type: in vivo, rat; conditions: 0.3 mg/kg, p.o.
Method: The experiment consists of two sessions, training and testing session. The training session was initiated with 7-week-old of male Long-Evans rats, and the testing session was conducted at 12-13 months old. Throughout the experimental period, food was restricted to 80-85% of their free-feeding body weight. The training and testing were conducted using four operant chambers enclosed in sound-attenuating boxes (Med Associates Inc., St Albans, VT). Each chamber contained a curved wall with five contiguous apertures. Food pellets were supplied automatically into a magazine located in the opposite wall of the five contiguous apertures in the chamber, and a photocell beam was used to detect head entries into the magazine. In the training session, a pellet was delivered into the magazine at the start of each session to facilitate initiation of the first trial. After a 5 s-intertrial interval (ITI), a light stimulus was presented in one of the five apertures followed by the 5 s-limited hold without light stimulus. […] Rats were required to nose-poke in the illuminated aperture. […] Incorrect responses (responses in non-illuminated apertures), omissions (failure to respond during the limited hold) and premature responses (responses occurring prior to the presentation of the stimulus) were punished by a 5 s-timeout periods with extinction of the house light and no delivery of food. Accuracy was calculated as the number of correct responses / (number of correct responses + number of incorrect responses) × 100. Each session lasted for 35 min or until 100 trials were completed. Rats were trained until they achieved criterion performance (>75% accuracy and <20 omissions) over 3 consecutive days. In the testing session, the duration of light stimuli on an aperture was set to 0.5 s with a variable ITI schedule (4, 5, 7, or 10 s). Equal numbers of each ITI were randomly presented over 100 trials. TAK-653 at 0.3 mg/kg or vehicle was orally administered 2 h prior to testing in a cross-over design. Data were indicated as the mean ± SEM of number of correct responses, omissions, and premature responses. For sub-population analyses, a median split of the population was undertaken based on their correct response scores under vehicle treatment to ensure no interaction with performance changes across the study (Robinson, 2012).

CC1=CN2CCS(=O)(=O)N=C2C(c2ccc(OC3CCCCC3)cc2)=N1 [TAK-653, 9-[4-(Cyclohexyloxy)phenyl]-7-methyl-3,4-dihydropyrazino[2,1-c][1,2,4]thiadiazine 2,2-dioxide]
Margin based on AUCplasma [1]: 1017 fold
Margin based on plasma Cmax [1]: 419 fold
Tmax [2]: 8 h
half-life [2]: 9.4 ± 3.8 h
IC50 [3]: 5.9 µM
Premature responses [4]: did not affect
5CSRTT performance in the whole population ([4]; 2 h prior to the trial): no significant improvement
Correct responses in the poor performing rats ([4]; median split): significantly increased
Omissions in the poor performing rats ([4]; median split): decreased
